Target: T1, Ba/F3 cell EGFR Exon20 ins NPH (Homo sapiens, UniProt P00533, INS773NPH)
T1 construct: expressed in transfected cells; host or cells: Ba/F3
Test: Ba/F3 cell proliferation suppression, EGFR Exon20 ins NPH
Assay type: cell-based
Conditions: GI50 class; Ba/F3 cell line with NPH inserted at Exon20 of EGFR; 72 hours
Procedure, shortened: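 Cells (3000–5000/well) plated 24 h before compound, 12-point 3-fold dilutions at 0.3 nM to 50 um final; Ba/F3 lines grown with 5 ng/ml IL-3. Viability by CellTiter-Glo luminescence after 72 h, growth ratio vs control, GI50 from curves; triplicate.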

Compound	Ba/F3 (NPH) Activity
C=CC(=O)Nc1cc(Nc2cc(N3OCC[C@@H]3Cc3cccc(N(C)C)c3)ncn2)c(OC)cc1N1CCC(N2C[C@@H]3C[C@H]2CO3)CC1 [compound 1048, N-(2-(4-((1S,4S)-2-oxa-5-azabicyclo [2.2.1]heptane-5-yl)piperidine-1-yl)-5-((6-((S)-3-(3-(dimethylamino)benzyl)isoxazolidine-2-yl)pyrimidine-4-yl)amino)-4-methoxyphenyl) acrylamide]	B (50 nM ≤ GI50 < 500 nM)
C=CC(=O)Nc1cc(Nc2cc(N3OCC[C@@H]3c3c(F)ccc(F)c3F)ncn2)c(OC)cc1N1CCC(N2CCN(C3CCC3)CC2)CC1 [Example 194, N-(2-(4-(4-cyclobutylpiperazine-1-yl)piperidine-1-yl)-4-methoxy-5-((6-((R)-3-(2,3,6-trifluorophenyl)isoxazolidine-2-yl)pyrimidine-4-yl)amino)phenyl)acrylamide]	A (GI50 < 50 nM)
C=CC(=O)Nc1cc(Nc2cc(N3OCC[C@@H]3c3ccc(Cl)c(Cl)c3F)ncn2)c(OC)cc1N1CC[C@@H](N(C)C)C1 [Example 291, N-(5-((6-((R)-3-(3,4-dichloro-2-fluorophenyl)isoxazolidine-2-yl)pyrimidine-4-yl)amino)-2-((R)-3-(dimethylamino)pyrolidine-1-yl)-4-methoxyphenyl) acrylamide]	B (50 nM ≤ GI50 < 500 nM)
C=CC(=O)Nc1cc(Nc2cc(N3OCC[C@@H]3c3cc(F)cc(F)c3)ncn2)c(OC)cc1N1CCOCC1 [compound 823, N-(5-((6-((R)-3-(3,5-difluorophenyl)isoxazolidine-2-yl)pyrimidine-4-yl)amino)-4-methoxy-2-morpholinophenyl) acrylamide]	A (GI50 < 50 nM)
C#Cc1cccc([C@H]2CCON2c2cc(Nc3cc(NC(=O)C=C)c(N4CCC(N5CCN(CC)CC5)CC4)cc3OC)ncn2)c1 [compound 652, N-(2-(4-(4-ethylpiperazine-1-yl)piperidine-1-yl)-5-((6-((R)-3-(3-ethynylphenyl)isoxazolidine-2-yl)pyrimidine-4-yl)amino)-4-methoxyphenyl) acrylamide]	B (50 nM ≤ GI50 < 500 nM)
C=CC(=O)Nc1cc(Nc2cc(N3OCC[C@@H]3c3cc(F)ccc3F)ncn2)c(OC)cc1N1CCC(N2CCN(C3CC3)CC2)CC1 [Example 61, N-(2-(4-(4-cyclopropylpiperazine-1-yl)piperidine-1-yl)-5-((6-((R)-3-(2,5-difluorophenyl)isoxazolidine-2-yl)pyrimidine-4-yl)amino)-4-methoxyphenyl) acrylamide;]	A (GI50 < 50 nM)
C=CC(=O)Nc1cc(Nc2cc(N3OCC[C@@H]3c3ccc(C)nc3)ncn2)c(OC)cc1N1CCC(N(C)CCOC)CC1 [Example 229, N-(4-methoxy-2-(4-((2-methoxyethyl)(methyl)amino)piperidine-1-yl)-5-((6-((R)-3-(6-methylpyridine-3-yl)isoxazolidine-2-yl)pyrimidine-4-yl)amino)phenyl)acrylamide]	B (50 nM ≤ GI50 < 500 nM)
C=CC(=O)Nc1cc(Nc2cc(N3OCC[C@@H]3c3cccc(Cl)c3)ncn2)c(OC)cc1N1CCC(N2CCN(C(C)=O)CC2)CC1 [compound 471, N-(2-(4-(4-acetylpiperazine-1-yl)piperidine-1-yl)-5-((6-((R)-3-(3-chlorophenyl)isoxazolidine-2-yl)pyrimidine-4-yl)amino)-4-methoxyphenyl) acrylamide]	A (GI50 < 50 nM)
C=CC(=O)Nc1cc(Nc2cc(N3OCC[C@@H]3c3cccc(F)c3F)ncn2)c(OC)cc1N1CCN(C)CC1 [compound 925, N-(5-((6-((R)-3-(2,3-difluorophenyl)isoxazolidine-2-yl)pyrimidine-4-yl)amino)-4-methoxy-2-(4-methylpiperazine-1-yl)phenyl)acrylamide]	A (GI50 < 50 nM)
C=CC(=O)Nc1cc(Nc2cc(N3OCC[C@@H]3c3ccc(F)cc3F)ncn2)c(OC)cc1N1CCN(C(C)C)CC1 [compound 346, N-(5-((6-((R)-3-(2,4-difluorophenyl)isoxazolidine-2-yl)pyrimidine-4-yl)amino)-2-(4-isopropylpiperazine-1-yl)-4-methoxyphenyl) acrylamide]	A (GI50 < 50 nM)
C=CC(=O)Nc1cc(Nc2cc(N3OCC[C@@H]3c3cccc(Cl)c3C)ncn2)c(OC)cc1N1CCC(N2C[C@H]3C[C@@H]2CO3)CC1 [compound 532, N-(2-(4-((1R,4R)-2-oxa-5-azabicyclo[2.2.1]heptane-5-yl)piperidine-1-yl)-5-((6-((R)-3-(3-chloro-2-methylphenyl)isoxazolidine-2-yl)pyrimidine-4-yl)amino)-4-methoxyphenyl) acrylamide]	A (GI50 < 50 nM)
C=CC(=O)Nc1cc(Nc2cc(N3OCC[C@@H]3c3cc(F)ccc3F)ncn2)c(OC)cc1N1C[C@@H]2CCN(C)[C@@H]2C1 [compound 893, N-(5-((6-((R)-3-(2,5-difluorophenyl)isoxazolidine-2-yl)pyrimidine-4-yl)amino)-4-methoxy-2-((3aS,6aS)-1-methylhexahydropyrrolo [3,4-b]pyrrole-5(1H)-yl)phenyl) acrylamide]	A (GI50 < 50 nM)
C=CC(=O)Nc1cc(Nc2cc(N3OCC[C@@H]3c3cccc(F)c3Cl)ncn2)c(OC)cc1N1CCC(N(C)C)CC1 [compound 553, N-(5-((6-((R)-3-(2-chloro-3-fluorophenyl)isoxazolidine-2-yl)pyrimidine-4-yl)amino)-2-(4-(dimethylamino)piperidine-1-yl)-4-methoxyphenyl) acrylamide]	A (GI50 < 50 nM)
C=CC(=O)Nc1cc(Nc2cc(N3OCC[C@@H]3c3ccccc3)ncn2)c(OC)cc1N1CCN(CCN(C)C)CC1 [Example 278, N-(2-(4-(2-(dimethylamino)ethyl)piperazine-1-yl)-4-methoxy-5-((6-((R)-3-phenylisoxazolidine-2-yl)pyrimidine-4-yl)amino)phenyl) acrylamide]	A (GI50 < 50 nM)
C=CC(=O)Nc1cc(Nc2cc(N3OCC[C@@H]3c3c(F)ccc(F)c3F)ncn2)c(OC)cc1N1CCC(N2CCN(C3CC3)CC2)CC1 [Example 169, N-(2-(4-(4-cyclopropylpiperazine-1-yl)piperidine-1-yl)-4-methoxy-5-((6-((R)-3-(2,3,6-trifluorophenyl)isoxazolidine-yl)pyrimidine-4-yl)amino)phenyl)acrylamide]	A (GI50 < 50 nM)
C=CC(=O)Nc1cc(Nc2cc(N3OCC[C@@H]3c3ccc4ccccc4c3)ncn2)c(OC)cc1N1CCC(N2CCOCC2)CC1 [compound 555, N-(4-methoxy-2-(4-morpholinopiperidine-1-yl)-5-((6-((R)-3-(naphthalene-2-yl)isoxazolidine-2-yl)pyrimidine-4-yl)amino)phenyl)acrylamide]	B (50 nM ≤ GI50 < 500 nM)
C=CC(=O)Nc1cc(Nc2cc(N3OCC[C@@H]3c3cccc(C)c3F)ncn2)c(OC)cc1N1CCC(N2CCN(C3CC3)CC2)CC1 [Example 140, N-(2-(4-(4-cyclopropylpiperazine-1-yl)piperidine-1-yl)-5-((6-((R)-3-(2-fluoro-3-methylphenyl)isoxazolidine-2-yl)pyrimidine-4-yl)amino)-4-methoxyphenyl) acrylamide]	A (GI50 < 50 nM)
